pIC50, pKd, pKi: −log10 of the molar value.
Experiments:
[1] = system: CcreOBP6; assay: Fluorescence competitive binding assay with 1-NPN probe, CcreOBP6; parameters: species or system Cacia cretifera thibetana
Method: (§1) The binding affinities of both CcreOBP6 and CcreOBP10 proteins with 20 odor volatiles were determined. The CcreOBP6 and CcreOBP10 proteins from prokaryotic cells were purified by Ni affinity chromatography. Then, 50 mM Tris-HCL buffer solution (pH = 7.4) was prepared, and N-phenyl-1-naphthylamine (1-NPN) was used as a fluorescent probe. For chromatography, the methanol was used as a solvent for fluorescent probe 1-NPN as well as for 20 odor standard volatile samples dissolved in solvent to make a 1 mM solution. These samples were added to a 96 Micro Well TM microtiter plate (NunclonTM) while the multifunctional microplate reader (VARIOSKAN FLASH) excitation light wavelength was set to 337 nm. The scanning wavelength was between 370 to 550 nm, and both excitation and emission slits were set to 5 nm. To determine the CcreOBP6 and CcreOBP10 protein binding constant with the fluorescent probe 1-NPN, a solution was prepared with CcreOBP6 and CcreOBP10 proteins in Tris-HCL (pH = 7.4) buffer with a 2 μM final concentration. The successive concentrations of 2, 4, 6, 8, 12, 16, and 20 μM of 1-NPN were added, and the fluorescence intensity was recorded at the maximum emission wavelength (Em = 410 nm) for each time, and the experiment was repeated three times. The formula for the protein and odor standard dissociation constant was calculated by: Ki = [IC 50]/(1 + [1-NPN]/K 1-NPN) where IC 50 denotes the odor standard concentrations as the fluorescence intensity value was decreased by half, [1-NPN] is the unbound 1-NPN prob concentration, and K 1-NPN is the protein and 1-NPN probe binding constant.

[2] = molecular target: CcreOBP10; assay: Fluorescence competitive binding assay with 1-NPN probe, CcreOBP10; parameters: species or system Cacia cretifera thibetana
Method: as §1

[3] = system: males and females; parameters: method as in PMID 23564737; settings: olfactometer, lower dose; cited from earlier work
[4] = competitive displacement of 1-NPN
[5] = 2 μM protein, Tris-HCl pH 7.4, Em 410 nm, read-out: dissociation constant with fluorescent probe 1-NPN
[6] = Ki = [IC50]/(1 + [1-NPN]/K1-NPN)
[7] = odor concentration at which 1-NPN fluorescence intensity is halved

| Compound | binding with CcreOBP6 [1, 4] | relative fluorescence value [2, 4] | binding with CcreOBP10 [2, 4] | other results |
| --- | --- | --- | --- | --- |
| C1=CCCCC=CCCC1 [1,6-cyclodecadiene] | did not show any binding | – | – | – |
| c1ccc(Nc2cccc3ccccc23)cc1 [1-NPN, N-phenyl-1-naphthylamine, reference compound] | – | – | – | pKd [1, 5]: 5.15; pKd [2, 5]: 5.21 |
| C=C1CC/C=C(\C)CC[C@@H]2[C@@H]1CC2(C)C [1-caryophyllene] | – | below 50% | – | – |
| C=CC(=C)CCC=C(C)C [Myrcene] | – | below 50% | – | pKi [2, 6]: 4.86; pIC50 [2, 7]: 4.75 |
| C=C1CC[C@H]2O[C@]2(C)CC[C@@H]2[C@@H]1CC2(C)C [caryophyllene oxide] | did not show any binding | – | – | – |
| CC(C)COC(=O)c1ccccc1C(=O)OCC(C)C [di-isobutyl phthalate] | – | – | – | drop in the relative fluorescence value [2, 4]: 6.4% |
| CC12CCC(CC1)C(C)(C)O2 [eucalyptol] | – | – | – | relative fluorescence value [1, 4]: 10.84% |
| CCCCCC=O [n-hexanal] | did not show any binding | – | showed binding | – |
| CCC/C=C/C=O [trans-2-hexenal] | strong binding affinities | below 50% | strong binding affinities | pKi [1, 6]: 4.89; pIC50 [1, 7]: 4.79; repellent activity [3]: good repellent activity |
| phytol | did not show any binding | – | showed binding | – |
